Measured values from paper PMC8036666, “Biological and Physico-Chemical Characteristics of Arginine-Rich Peptide Gemini Surfactants with Lysine and Cystine Spacers” (International Journal of Molecular Sciences, 2021).
Values after ≈ are worked out from the molar mass of the structure shown. Like-named read-outs stand apart in the source and are kept apart here. Where a SMILES comes first, the peptide text is derived from it. Side-chain parts run from the residue outwards. The star is where a group is joined. Myristoyl = CCCCCCCCCCCCCC(=O)*; Lauroyl = CCCCCCCCCCCC(=O)*; Decanoyl = CCCCCCCCCC(=O)*; Octanoyl = CCCCCCCC(=O)*

What was measured:
[1] = tested on: Staphylococcus aureus ATCC 33591
Method: The Acinetobacter baumannii ATCC BAA-1605, Enterococcus faecium ATCC 700221, Escherichia coli ML-35 ATCC 43827, Klebsiella aerogenes ATCC 13048, Klebsiella pneumoniae ATCC 700603, Pseudomonas aeruginosa ATCC 9027, Staphylococcus aureus ATCC 25923, Staphylococcus aureus ATCC 33591, Candida albicans ATCC 10231, Candida glabrata ATCC 15126, strains were acquired from the American Type Culture Collection (ATCC). All the strains were stored at −80 °C in Roti-Store cryo vials and before the tests were transferred into fresh Mueller–Hinton broth (MHB, Biocorp, Warsaw, […], Steinheim, Germany) for fungi and incubated for 24 h at 37 °C. Then, the cultures were seeded on the Mueller–Hinton agar (BioMaxima, Lublin, Poland) or Sabouraud dextrose agar (SDA, BioMaxima, Lublin, Poland) plates, respectively, and incubated as just mentioned. These agar cultures were used for further microbiological assays. […]
The MICs were determined by the broth microdilution method according to the Clinical and Laboratory Standard Institute guidelines. […] The experiments were conducted on 96-well microtiter polystyrene plates (Kartell, Noviglio, Italy). The growth was assessed visually after incubation, and the MIC was assumed as the lowest peptide concentration at which a noticeable growth of microorganisms was inhibited. All experiments were conducted in triplicate.

[2] = tested on: Candida albicans ATCC 10231; assay type: cell-based; settings: ATCC 10231, 24 h
Method: (§1) Biofilm is associated with life-threating infections due to its outstanding resistance to antibiotics. In this study, the antibiofilm characteristics of USCLs and gemini surfactants were evaluated.
(§2) The MBECs were determined as described previously using 96-well polystyrene flat-bottom plates. For this purpose, 24 h cultures of microorganisms were diluted to obtain a final density of 5.0 × 10^5 CFU/mL and 2.0 × 10^5 CFU/mL of bacteria and fungi, respectively. Microorganisms were diluted in MHB or RPMI-1640 with 2% D-glucose (bacteria and fungi, respectively). Briefly, 100 µL of cell suspension was added into the test plates. After 24 h of incubation at 37 °C, the wells were rinsed three times with a PBS (pH 7.4) to remove non-adherent cells. Subsequently, 100 μL of the test compounds in a concentration range (1–512 μg/mL) were added to each well. After 24 h of incubation at 37 °C, 20 μL of a cell viability reagent was added (resazurin, 4 g/L; Sigma Aldrich, St. Louis, MO, USA). The MBEC was read after 1 h. The determined values were recorded as the lowest concentration at which the reduction of resazurin (from blue to pink) was lower or equal to 10 ± 0.5% as compared to the positive (100%) and negative (0%) controls. The reduction was monitored by measuring absorbance at 570 nm (reduced) and 600 nm (oxidized) using a microplate spectrophotometer (Multiskan GO Microplate Spectrophotometer, Thermo Fisher Scientific, Vantaa, Finland). All experiments were conducted in triplicate.

[3] = tested on: Staphylococcus aureus ATCC 33591; assay type: cell-based; settings: ATCC 33591, 24 h
Method: as §1, §2

[4] = tested on: Klebsiella aerogenes ATCC 13048; assay type: cell-based; settings: ATCC 13048, 24 h
Method: as §1, §2

[5] = tested on: Candida glabrata ATCC 15126; assay type: cell-based; settings: ATCC 15126, 24 h
Method: as §1, §2

[6] = tested on: Acinetobacter baumannii ATCC BAA 1605; assay type: cell-based; settings: ATCC BAA 1605, 24 h
Method: as §1, §2

[7] = tested on: Pseudomonas aeruginosa ATCC 9027; assay type: cell-based; settings: ATCC 9027, 24 h
Method: as §1, §2

[8] = tested on: Enterococcus faecium ATCC 700221; assay type: cell-based; settings: ATCC 700221, 24 h
Method: as §1, §2

[9] = tested on: Staphylococcus aureus ATCC 25923; assay type: cell-based; settings: ATCC 25923, 24 h
Method: as §1, §2

[10] = tested on: Klebsiella pneumoniae ATCC 700603; assay type: cell-based; settings: ATCC 700603, 24 h
Method: as §1, §2

HaCaT cells = assay type: cell-based, human; settings: 24 h
Method: Cells were trypsinized, and the medium was renewed 2–3 times per week. The cytotoxicity of compounds was assessed by the determination of cell metabolic activity by colorimetric CellTilter 96® Aqueous One Solution Cell Proliferation Assay (Promega, Madison, WI, USA), according to the manufacturer’s instructions. […] Every compound was medium-soluble in 37 °C; thus, the control cells were cultured with the medium. Serial dilutions of the tested compounds were always prepared prior to use. Cells were incubated with drugs for 24 h, and then, 20 μL of the CellTiter 96®AqueousOne Solution Reagent was added to each well containing cells maintained in 100 μL of culture medium.

[11] = tested on: human red blood cells (hRBCs); assay: Hemolysis assay; assay type: cell-based; settings: red cells of human, 1 h
Method: The hemolysis assay was performed by using the method reported previously. Fresh human red blood cells (hRBCs) with anticoagulant (EDTA) were rinsed three times with a PBS by centrifugation at 800× g for 10 min and diluted with PBS. The compounds were serially diluted on a 96-well microtiter polystyrene plate, and hRBCs were added up to a final volume of 100 μL. The compound concentration ranged between 0.5 and 256 μg/mL and the final hRBCs concentration was 4% (v/v). Controls for zero (blank) and 100% hemolysis consisted of hRBCs suspended in PBS and 1% of Triton-X 100 (Carl Roth GmbH, Karlsruhe, Germany), respectively. The plate was incubated for 1 h at 37 °C and then centrifuged (800× g, 10 min, 4 °C). Subsequently, the supernatant was […] to new microtiter plates, and the absorbance at 540 nm was measured (Multiskan GO Microplate Spectrophotometer, Thermo Fisher Scientific, Vantaa, Finland). All experiments were conducted in triplicate. HC50 was calculated using an ic50.tk tool. The protocol of the study was approved by the local Bioethics Committee at the Medical University of Gdańsk (NKBBN/262/2019, approval date: 10 June 2019).

MIC Staphylococcus aureus ATCC 33591 ([1]; planktonic culture) | MIC Staphylococcus aureus ATCC 33591 ([1]; ATCC 33591, 24 h) | SMILES | MBEC Candida albicans ATCC 10231 [2] | MBEC Staphylococcus aureus ATCC 33591 [3] | MBEC Klebsiella aerogenes ATCC 13048 [4] | MBEC Candida glabrata ATCC 15126 [5] | MBEC Acinetobacter baumannii ATCC BAA 1605 [6] | MBEC Pseudomonas aeruginosa ATCC 9027 [7] | MBEC Enterococcus faecium ATCC 700221 [8] | MBEC Staphylococcus aureus ATCC 25923 [9] | MBEC Klebsiella pneumoniae ATCC 700603 [10] | IC50 (HaCaT cells) | HC50 [11]
>256 (−/−) µg/mL | – | CCCCCCCC(=O)N[C@@H](CCCNC(=N)N)C(=O)N[C@@H](CCCNC(=N)N)C(N)=O [Compound A1, C8-RR-NH2] (Octanoyl-Arg-Arg-NH2) | >512 µg/mL | >512 µg/mL | >512 µg/mL | >512 µg/mL | >512 µg/mL | >512 µg/mL | >512 µg/mL | >512 µg/mL | >512 µg/mL | >500 µg/mL | –
256 (−/−) µg/mL | – | CCCCCCCCCC(=O)N[C@@H](CCCNC(=N)N)C(=O)N[C@@H](CCCNC(=N)N)C(N)=O [Compound A2, C10-RR-NH2] (Decanoyl-Arg-Arg-NH2) | 512 µg/mL | 512 µg/mL | >512 µg/mL | >512 µg/mL | >512 µg/mL | >512 µg/mL | 512 µg/mL | 512 µg/mL | >512 µg/mL | >500 µg/mL | –
– | 32 µg/mL (≈ 62.5 µM) | CCCCCCCCCCCC(=O)N[C@@H](CCCNC(=N)N)C(=O)N[C@@H](CCCNC(=N)N)C(N)=O [Compound A3, C12-RR-NH2] (Lauroyl-Arg-Arg-NH2) | 128 µg/mL | 64 µg/mL | 512 µg/mL | 512 µg/mL | 512 µg/mL | 512 µg/mL | 32 µg/mL | 64 µg/mL | 512 µg/mL | 153.50 ± 8.13 µg/mL (≈ 300 µM) | –
– | 8 µg/mL (≈ 7.83 µM) | CCCCCCCC(=O)N[C@@H](CCCNC(=N)N)C(=O)N[C@@H](CCCNC(=N)N)C(=O)NCCCC[C@H](NC(=O)[C@H](CCCNC(=N)N)NC(=O)[C@H](CCCNC(=N)N)NC(=O)CCCCCCC)C(N)=O [Compound B1] (Octanoyl-Arg-Arg-Lys([Arg-Arg-Octanoyl])-NH2) | 256 µg/mL | 32 µg/mL | >512 µg/mL | >512 µg/mL | 512 µg/mL | 512 µg/mL | 128 µg/mL | 32 µg/mL | >512 µg/mL | 378.40 ± 93.71 µg/mL (≈ 370 µM) | >256 µg/mL
– | 2 µg/mL (≈ 1.76 µM) | CCCCCCCCCCCC(=O)N[C@@H](CCCNC(=N)N)C(=O)N[C@@H](CCCNC(=N)N)C(=O)NCCCC[C@H](NC(=O)[C@H](CCCNC(=N)N)NC(=O)[C@H](CCCNC(=N)N)NC(=O)CCCCCCCCCCC)C(N)=O [Compound B3] (Lauroyl-Arg-Arg-Lys([Arg-Arg-Lauroyl])-NH2) | 32 µg/mL | 16 µg/mL | 128 µg/mL | 64 µg/mL | 256 µg/mL | 512 µg/mL | 16 µg/mL | 64 µg/mL | 128 µg/mL | 26.42 ± 4.24 µg/mL (≈ 23.3 µM) | 56.29 ± 6.50 µg/mL
– | 64 µg/mL (≈ 53.8 µM) | CCCCCCCCCCCCCC(=O)N[C@@H](CCCNC(=N)N)C(=O)N[C@@H](CCCNC(=N)N)C(=O)NCCCC[C@H](NC(=O)[C@H](CCCNC(=N)N)NC(=O)[C@H](CCCNC(=N)N)NC(=O)CCCCCCCCCCCCC)C(N)=O [Compound B4] (Myristoyl-Arg-Arg-Lys([Arg-Arg-Myristoyl])-NH2) | 64 µg/mL | 128 µg/mL | 256 µg/mL | 64 µg/mL | 512 µg/mL | >512 µg/mL | 64 µg/mL | 256 µg/mL | 512 µg/mL | 32.39 ± 4.49 µg/mL (≈ 27.2 µM) | 44.12 ± 4.70 µg/mL

SMILES | MIC Staphylococcus aureus ATCC 33591 ([1]; planktonic culture) | MIC Staphylococcus aureus ATCC 33591 ([1]; ATCC 33591, 24 h) | MBEC Candida albicans ATCC 10231 [2] | MBEC Staphylococcus aureus ATCC 33591 [3] | MBEC Klebsiella aerogenes ATCC 13048 [4] | MBEC Candida glabrata ATCC 15126 [5] | MBEC Acinetobacter baumannii ATCC BAA 1605 [6] | MBEC Pseudomonas aeruginosa ATCC 9027 [7] | MBEC Enterococcus faecium ATCC 700221 [8] | MBEC Staphylococcus aureus ATCC 25923 [9] | MBEC Klebsiella pneumoniae ATCC 700603 [10] | IC50 (HaCaT cells) | HC50 [11]
CCCCCCCCCCCCCC(=O)N[C@@H](CCCNC(=N)N)C(=O)N[C@@H](CCCNC(=N)N)C(N)=O [Compound A4, C14-RR-NH2] (Myristoyl-Arg-Arg-NH2) | – | 8 µg/mL (≈ 14.8 µM) | 64 µg/mL | 8 µg/mL | 256 µg/mL | 256 µg/mL | 256 µg/mL | 512 µg/mL | 8 µg/mL | 16 µg/mL | 256 µg/mL | 46.48 ± 3.65 µg/mL (≈ 86.1 µM) | –
CCCCCCCCCC(=O)N[C@@H](CCCNC(=N)N)C(=O)N[C@@H](CCCNC(=N)N)C(=O)NCCCC[C@H](NC(=O)[C@H](CCCNC(=N)N)NC(=O)[C@H](CCCNC(=N)N)NC(=O)CCCCCCCCC)C(N)=O [Compound B2] (Decanoyl-Arg-Arg-Lys([Arg-Arg-Decanoyl])-NH2) | – | 1 µg/mL (≈ 0.927 µM) | 32 µg/mL | 4 µg/mL | 256 µg/mL | 512 µg/mL | 128 µg/mL | 512 µg/mL | 4 µg/mL | 8 µg/mL | 256 µg/mL | 150.03 ± 3.15 µg/mL (≈ 139 µM) | >256 µg/mL
